Laboratory results as given in patent US7750031B2, “Caffeic acid derivative and composition containing the same” (Thefaceshop Korea Co., Ltd., priority 2007, dated 2010).

Test: solubility measurement in purified water and ethanol
Conditions: for density up to which dissolved: 25° C.

With O=C(O)/C=C/c1ccc(O)c(O)c1 [caffeic acid] the solubility (ethanol (25° C.), density 1 mg/mL) was “dissolved”, the solubility (ethanol (25° C.), density 10 mg/mL) was “dissolved” and the solubility (ethanol (25° C.), density 100 mg/mL) was “not dissolved”. For the same compound, the “density up to which dissolved” value (ethanol) was at least 10 mg/mL, the solubility (purified water (25° C.), density 1 mg/mL) was “not dissolved” and the solubility (purified water (25° C.), density 10 mg/mL) was “not dissolved”. For the same compound, the solubility (purified water (25° C.), density 100 mg/mL) was “not dissolved” and the “density up to which dissolved” value (purified water) was “not dissolved”.
